The assay deals with C57 BL/6J-ob/ob mice. As to the kind of experiment: test for hypoglycemic effect in ob/ob mice. The settings on record: plasma glucose on day 5, ob/ob mice dosed daily for five days, 50 mg/kg in 0.25% w/v methyl cellulose; value given as an example (e.g.). Format: in vivo. The source says:
The present compounds of the formula (I) are readily adapted to clinical use as hypoglycemic or hypocholesterolemic agents. The activity required for this former clinical use is defined by the test for hypoglycemic effect in ob/ob mice by the following procedure:
Five to eight week old C57 BL/6J-ob/ob mice (obtained from Jackson Laboratory, Bar Harbor, Maine) were housed five per cage under standard animal care practices. After a one week acclimation period, the animals were weighed and 25 microliters of blood was collected via an ocular bleed prior to any treatment. The blood sample was immediately diluted 1:5 with saline containing 2.5 mg/ml sodium fluoride and 2% sodium heparin, and held on ice for metabolite analysis. […] The supernatant was analyzed for glucose, for example, by the ABA 200 Bichromatic Analyzer™, using the A-gent™ glucose UV reagent system* (hexokinase method) using 20, 60 and 100 mg/dl standards. Plasma glucose was then calculated by the equation, Plasma glucose (mg/dl) = Sample value x 5 x 1.67 = 8.35 x Sample value [formula] where 5 is the dilution factor and 1.67 is the plasma hematocrit adjustment (assuming the hematocrit is 40%). ™A registered trademark of Abbott Laboratories, Diagnostics Division, 820 Mission Street, So. […]

In the case of `CC1(COc2ccc(CC3SC(=O)NC3=O)cc2)CCCCC1` (stereo not shown) [positive control, ciglitazone], the glucose levels was roughly 130 mg/dL.
